According to patent US10844077B2, “Thiazolyl-containing compounds for treating proliferative diseases” (Dana-Farber Cancer Institute, Inc., priority 2014, dated 2020):

Tests used:
Format in all cases: binding
broad panel of kinases [1] = molecular target: broad panel of kinases (Homo sapiens, UniProt O00141); settings: SGK; 1 μM
broad panel of kinases [2] = molecular target: broad panel of kinases (Homo sapiens, UniProt O00506); settings: YSK1; 1 μM
broad panel of kinases [3] = molecular target: broad panel of kinases (Homo sapiens, UniProt O14733); settings: MKK7; 1 μM
broad panel of kinases [4] = molecular target: broad panel of kinases (Homo sapiens, UniProt O75460); settings: ERN1; 1 μM
broad panel of kinases [5] = molecular target: broad panel of kinases (Homo sapiens, UniProt O75716); settings: STK16; 1 μM
broad panel of kinases [6] = molecular target: broad panel of kinases (Homo sapiens, UniProt P04049); settings: RAF1; 1 μM
broad panel of kinases [7] = molecular target: broad panel of kinases (Homo sapiens, UniProt P17612); settings: PKAC-alpha; 1 μM
broad panel of kinases [8] = molecular target: broad panel of kinases (Homo sapiens, UniProt P24723); settings: PRKCH; 1 μM
broad panel of kinases [9] = molecular target: broad panel of kinases (Homo sapiens, UniProt P36888, D835Y); settings: FLT3(D835Y); 1 μM
broad panel of kinases [10] = molecular target: broad panel of kinases (Homo sapiens, UniProt P36888, R834Q); settings: FLT3(R834Q); 1 μM
broad panel of kinases [11] = molecular target: broad panel of kinases (Homo sapiens, UniProt P37023); settings: ACVRL1; 1 μM
broad panel of kinases [12] = molecular target: broad panel of kinases (Homo sapiens, UniProt P42336, H1047L); settings: PIK3CA(H1047L); 1 μM
broad panel of kinases [13] = molecular target: broad panel of kinases (Homo sapiens, UniProt P42336, H1047Y); settings: PIK3CA(H1047Y); 1 μM
broad panel of kinases [14] = molecular target: broad panel of kinases (Homo sapiens, UniProt P42685); settings: FRK; 1 μM
broad panel of kinases [15] = molecular target: broad panel of kinases (Homo sapiens, UniProt P48730); settings: CSNK1D; 1 μM
broad panel of kinases [16] = molecular target: broad panel of kinases (Homo sapiens, UniProt P51617); settings: IRAK1; 1 μM
broad panel of kinases [17] = molecular target: broad panel of kinases (Homo sapiens, UniProt P52564); settings: MEK6; 1 μM
broad panel of kinases [18] = molecular target: broad panel of kinases (Homo sapiens, UniProt P54760); settings: EPHB4; 1 μM
broad panel of kinases [19] = molecular target: broad panel of kinases (Homo sapiens, UniProt Q00532); settings: CDKL1; 1 μM
broad panel of kinases [20] = molecular target: broad panel of kinases (Homo sapiens, UniProt Q13131); settings: AMPK-alpha1; 1 μM
broad panel of kinases [21] = molecular target: broad panel of kinases (Homo sapiens, UniProt Q13153); settings: PAK1; 1 μM
broad panel of kinases [22] = molecular target: broad panel of kinases (Homo sapiens, UniProt Q13233); settings: MAP3K1; 1 μM
broad panel of kinases [23] = molecular target: broad panel of kinases (Homo sapiens, UniProt Q13464); settings: ROCK1; 1 μM
broad panel of kinases [24] = molecular target: broad panel of kinases (Homo sapiens, UniProt Q5S007); settings: LRRK2; 1 μM
broad panel of kinases [25] = molecular target: broad panel of kinases (Homo sapiens, UniProt Q5S007, G2019S); settings: LRRK2(G2019S); 1 μM
broad panel of kinases [26] = molecular target: broad panel of kinases (Homo sapiens, UniProt Q6ZN16); settings: MAP3K15; 1 μM
broad panel of kinases [27] = molecular target: broad panel of kinases (Homo sapiens, UniProt Q86UX6); settings: YANK3; 1 μM
broad panel of kinases [28] = molecular target: broad panel of kinases (Homo sapiens, UniProt Q8NEV4); settings: MYO3A; 1 μM
broad panel of kinases [29] = molecular target: broad panel of kinases (Homo sapiens, UniProt Q8WXR4); settings: MYO3B; 1 μM
broad panel of kinases [30] = molecular target: broad panel of kinases (Homo sapiens, UniProt Q99558); settings: NIK; 1 μM
broad panel of kinases [31] = molecular target: broad panel of kinases (Homo sapiens, UniProt Q99640); settings: PKMYT1; 1 μM
broad panel of kinases [32] = molecular target: broad panel of kinases (Homo sapiens, UniProt Q9H3Y6); settings: SRMS; 1 μM
broad panel of kinases [33] = molecular target: broad panel of kinases (Homo sapiens, UniProt Q9HBH9); settings: MKNK2; 1 μM
broad panel of kinases [34] = molecular target: broad panel of kinases (Homo sapiens, UniProt Q9UL54); settings: TAOK2; 1 μM
broad panel of kinases [35] = molecular target: broad panel of kinases (Homo sapiens, UniProt Q9UM73); settings: ALK; 1 μM
broad panel of kinases [36] = molecular target: broad panel of kinases (Homo sapiens, UniProt Q9Y4K4); settings: MAP4K5; 1 μM
broad panel of kinases [37] = molecular target: broad panel of kinases (Mycobacterium tuberculosis, UniProt P9WI81)
broad panel of kinases (Mycobacterium tuberculosis, UniProt P9WI81), sequence (P9WI81 2-626 limits assumed): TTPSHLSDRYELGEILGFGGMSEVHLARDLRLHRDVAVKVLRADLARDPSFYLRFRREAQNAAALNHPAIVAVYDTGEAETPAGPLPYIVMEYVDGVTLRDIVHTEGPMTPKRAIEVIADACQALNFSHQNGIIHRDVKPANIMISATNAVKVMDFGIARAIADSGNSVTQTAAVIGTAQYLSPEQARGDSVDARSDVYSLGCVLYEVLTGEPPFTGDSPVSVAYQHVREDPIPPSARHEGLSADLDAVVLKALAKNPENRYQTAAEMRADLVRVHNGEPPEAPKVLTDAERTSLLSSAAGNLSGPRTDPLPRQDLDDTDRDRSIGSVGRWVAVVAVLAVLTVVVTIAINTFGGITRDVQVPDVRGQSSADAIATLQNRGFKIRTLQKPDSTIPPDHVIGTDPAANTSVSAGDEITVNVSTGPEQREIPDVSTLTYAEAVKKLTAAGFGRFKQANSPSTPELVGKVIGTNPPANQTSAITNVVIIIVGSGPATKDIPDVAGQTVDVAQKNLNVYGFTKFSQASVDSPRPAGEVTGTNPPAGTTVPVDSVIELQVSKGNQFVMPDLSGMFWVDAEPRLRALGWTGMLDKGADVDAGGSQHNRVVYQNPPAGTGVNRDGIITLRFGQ

broad panel of kinases (Homo sapiens, UniProt P37023), sequence (P37023 22-503 limits assumed): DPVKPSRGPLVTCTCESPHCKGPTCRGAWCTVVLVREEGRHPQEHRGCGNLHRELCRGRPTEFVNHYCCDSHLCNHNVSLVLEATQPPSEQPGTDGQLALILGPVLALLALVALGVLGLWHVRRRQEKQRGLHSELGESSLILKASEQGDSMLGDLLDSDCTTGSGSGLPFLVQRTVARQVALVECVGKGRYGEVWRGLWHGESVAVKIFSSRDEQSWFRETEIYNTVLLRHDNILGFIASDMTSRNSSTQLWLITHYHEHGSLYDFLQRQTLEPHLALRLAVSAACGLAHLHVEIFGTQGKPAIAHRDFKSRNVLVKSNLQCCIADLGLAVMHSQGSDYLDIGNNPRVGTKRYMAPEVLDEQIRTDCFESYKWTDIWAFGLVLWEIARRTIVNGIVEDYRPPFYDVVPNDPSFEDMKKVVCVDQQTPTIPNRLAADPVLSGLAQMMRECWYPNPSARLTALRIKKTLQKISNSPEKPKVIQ
broad panel of kinases (Homo sapiens, UniProt Q13233), sequence (Q13233 2-1512 limits assumed): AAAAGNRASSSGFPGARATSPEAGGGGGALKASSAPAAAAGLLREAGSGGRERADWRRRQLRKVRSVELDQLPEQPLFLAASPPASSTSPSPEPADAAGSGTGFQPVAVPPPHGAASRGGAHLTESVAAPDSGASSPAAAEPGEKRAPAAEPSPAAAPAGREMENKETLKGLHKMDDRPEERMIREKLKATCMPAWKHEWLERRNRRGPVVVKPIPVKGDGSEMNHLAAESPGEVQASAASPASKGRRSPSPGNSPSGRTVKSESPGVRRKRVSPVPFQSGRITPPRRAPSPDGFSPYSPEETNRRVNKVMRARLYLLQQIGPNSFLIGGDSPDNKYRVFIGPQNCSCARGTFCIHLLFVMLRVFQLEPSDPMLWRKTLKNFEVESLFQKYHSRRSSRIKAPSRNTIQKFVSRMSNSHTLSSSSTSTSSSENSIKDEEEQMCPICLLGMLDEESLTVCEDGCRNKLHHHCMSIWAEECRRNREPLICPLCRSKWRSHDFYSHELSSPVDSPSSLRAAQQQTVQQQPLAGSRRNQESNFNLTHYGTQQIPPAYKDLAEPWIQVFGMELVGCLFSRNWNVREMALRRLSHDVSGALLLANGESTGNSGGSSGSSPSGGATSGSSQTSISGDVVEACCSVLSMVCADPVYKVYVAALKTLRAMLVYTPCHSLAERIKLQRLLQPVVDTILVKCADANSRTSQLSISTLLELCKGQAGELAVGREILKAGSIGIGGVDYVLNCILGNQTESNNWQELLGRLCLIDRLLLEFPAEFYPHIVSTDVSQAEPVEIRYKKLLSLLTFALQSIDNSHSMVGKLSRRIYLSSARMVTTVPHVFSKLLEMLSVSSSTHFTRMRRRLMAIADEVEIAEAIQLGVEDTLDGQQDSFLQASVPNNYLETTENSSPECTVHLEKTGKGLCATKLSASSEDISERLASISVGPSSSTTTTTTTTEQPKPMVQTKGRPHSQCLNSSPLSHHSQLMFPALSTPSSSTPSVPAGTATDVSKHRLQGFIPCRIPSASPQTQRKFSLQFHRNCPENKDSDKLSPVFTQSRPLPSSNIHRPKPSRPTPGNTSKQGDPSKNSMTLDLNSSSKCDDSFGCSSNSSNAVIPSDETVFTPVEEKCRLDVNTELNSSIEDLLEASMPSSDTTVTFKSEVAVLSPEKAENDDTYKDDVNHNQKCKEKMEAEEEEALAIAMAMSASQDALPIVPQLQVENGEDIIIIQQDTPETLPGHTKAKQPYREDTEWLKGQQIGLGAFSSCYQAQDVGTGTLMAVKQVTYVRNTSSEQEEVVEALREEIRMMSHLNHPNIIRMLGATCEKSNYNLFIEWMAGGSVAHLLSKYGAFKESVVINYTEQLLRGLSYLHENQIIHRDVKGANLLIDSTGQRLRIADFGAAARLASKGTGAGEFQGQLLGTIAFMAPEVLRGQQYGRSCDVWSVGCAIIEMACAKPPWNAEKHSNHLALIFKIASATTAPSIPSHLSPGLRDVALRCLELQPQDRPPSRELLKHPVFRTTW
broad panel of kinases (Homo sapiens, UniProt O14733), sequence (O14733 2-419 limits assumed): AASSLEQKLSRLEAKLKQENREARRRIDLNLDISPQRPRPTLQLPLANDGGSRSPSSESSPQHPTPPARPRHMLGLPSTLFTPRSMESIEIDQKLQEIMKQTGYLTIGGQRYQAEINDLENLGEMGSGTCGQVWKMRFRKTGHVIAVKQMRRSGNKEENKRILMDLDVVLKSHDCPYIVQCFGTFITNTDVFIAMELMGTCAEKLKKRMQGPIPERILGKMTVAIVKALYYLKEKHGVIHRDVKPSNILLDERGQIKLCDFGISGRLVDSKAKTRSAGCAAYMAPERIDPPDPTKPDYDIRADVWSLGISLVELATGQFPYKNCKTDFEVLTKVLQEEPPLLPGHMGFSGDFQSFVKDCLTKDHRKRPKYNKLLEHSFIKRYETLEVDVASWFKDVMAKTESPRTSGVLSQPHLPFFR
broad panel of kinases (Homo sapiens, UniProt O75716), sequence (O75716 2-305 limits assumed): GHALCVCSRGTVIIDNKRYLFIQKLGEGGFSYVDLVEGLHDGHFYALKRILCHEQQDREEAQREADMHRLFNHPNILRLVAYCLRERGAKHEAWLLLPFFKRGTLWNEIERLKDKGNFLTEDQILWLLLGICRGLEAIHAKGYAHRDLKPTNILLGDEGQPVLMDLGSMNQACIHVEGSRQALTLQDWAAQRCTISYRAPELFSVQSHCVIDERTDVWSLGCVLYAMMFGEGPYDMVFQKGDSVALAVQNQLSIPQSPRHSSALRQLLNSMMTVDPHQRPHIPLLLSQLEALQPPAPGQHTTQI
broad panel of kinases (Homo sapiens, UniProt Q13464), sequence (Q13464 2-1354 limits assumed): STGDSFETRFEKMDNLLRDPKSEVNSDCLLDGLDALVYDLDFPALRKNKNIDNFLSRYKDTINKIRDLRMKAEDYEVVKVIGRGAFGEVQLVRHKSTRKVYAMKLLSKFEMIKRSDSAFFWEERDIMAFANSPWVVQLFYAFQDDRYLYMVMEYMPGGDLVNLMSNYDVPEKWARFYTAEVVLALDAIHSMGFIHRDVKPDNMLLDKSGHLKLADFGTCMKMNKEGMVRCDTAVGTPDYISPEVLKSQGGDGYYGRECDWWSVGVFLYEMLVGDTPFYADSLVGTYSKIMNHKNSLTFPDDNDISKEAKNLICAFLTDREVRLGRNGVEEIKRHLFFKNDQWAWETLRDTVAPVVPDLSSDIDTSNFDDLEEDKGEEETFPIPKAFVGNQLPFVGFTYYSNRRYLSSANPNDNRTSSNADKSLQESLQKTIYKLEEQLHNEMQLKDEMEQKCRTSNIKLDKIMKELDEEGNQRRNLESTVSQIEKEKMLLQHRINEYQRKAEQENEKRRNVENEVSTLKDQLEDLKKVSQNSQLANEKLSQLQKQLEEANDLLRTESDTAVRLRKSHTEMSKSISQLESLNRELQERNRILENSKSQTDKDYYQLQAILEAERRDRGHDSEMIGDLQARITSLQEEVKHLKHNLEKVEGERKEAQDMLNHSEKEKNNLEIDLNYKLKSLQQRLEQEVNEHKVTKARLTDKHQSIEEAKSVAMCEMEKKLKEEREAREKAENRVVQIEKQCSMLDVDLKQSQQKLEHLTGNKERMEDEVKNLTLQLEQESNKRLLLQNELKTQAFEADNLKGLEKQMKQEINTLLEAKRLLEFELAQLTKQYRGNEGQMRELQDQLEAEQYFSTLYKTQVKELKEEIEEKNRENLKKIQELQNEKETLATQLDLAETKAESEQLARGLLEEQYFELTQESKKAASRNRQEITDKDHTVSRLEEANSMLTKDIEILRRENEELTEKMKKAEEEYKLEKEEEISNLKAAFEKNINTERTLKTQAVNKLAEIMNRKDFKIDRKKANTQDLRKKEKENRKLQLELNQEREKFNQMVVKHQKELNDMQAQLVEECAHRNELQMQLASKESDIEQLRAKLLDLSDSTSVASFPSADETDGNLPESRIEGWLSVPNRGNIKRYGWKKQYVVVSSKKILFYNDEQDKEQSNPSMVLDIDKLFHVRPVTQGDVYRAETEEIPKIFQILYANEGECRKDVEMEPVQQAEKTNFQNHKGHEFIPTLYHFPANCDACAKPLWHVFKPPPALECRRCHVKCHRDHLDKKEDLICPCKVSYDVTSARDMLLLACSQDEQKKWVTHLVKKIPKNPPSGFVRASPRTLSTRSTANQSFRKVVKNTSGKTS

Structure (SMILES)	percent of control binding remaining (lower = stronger binding) (broad panel of kinases [1]) [%]	percent of control binding remaining (lower = stronger binding) (broad panel of kinases [2]) [%]	percent of control binding remaining (lower = stronger binding) (broad panel of kinases [3]) [%]	percent of control binding remaining (lower = stronger binding) (broad panel of kinases [4]) [%]	percent of control binding remaining (lower = stronger binding) (broad panel of kinases [5]) [%]	percent of control binding remaining (lower = stronger binding) (broad panel of kinases [6]) [%]	percent of control binding remaining (lower = stronger binding) (broad panel of kinases [7]) [%]	percent of control binding remaining (lower = stronger binding) (broad panel of kinases [8]) [%]	percent of control binding remaining (lower = stronger binding) (broad panel of kinases [9]) [%]	percent of control binding remaining (lower = stronger binding) (broad panel of kinases [10]) [%]	percent of control binding remaining (lower = stronger binding) (broad panel of kinases [11]) [%]	percent of control binding remaining (lower = stronger binding) (broad panel of kinases [12]) [%]	percent of control binding remaining (lower = stronger binding) (broad panel of kinases [13]) [%]	percent of control binding remaining (lower = stronger binding) (broad panel of kinases [14]) [%]	percent of control binding remaining (lower = stronger binding) (broad panel of kinases [15]) [%]	percent of control binding remaining (lower = stronger binding) (broad panel of kinases [16]) [%]	percent of control binding remaining (lower = stronger binding) (broad panel of kinases [17]) [%]	percent of control binding remaining (lower = stronger binding) (broad panel of kinases [18]) [%]	percent of control binding remaining (lower = stronger binding) (broad panel of kinases [19]) [%]	percent of control binding remaining (lower = stronger binding) (broad panel of kinases [20]) [%]	other results
C=CC(=O)N1CC[C@H](Nc2nc(CN3CCOCC3)cc(Nc3ncc(C(=O)Nc4c(C)cccc4C)s3)n2)C1 [Example I-2]	56	85	88	83	99	26	85	97	97	100	54	84	100	0.1	100	84	82	0	100	100	percent of control binding remaining (lower = stronger binding) (broad panel of kinases [21]): 100%; percent of control binding remaining (lower = stronger binding) (broad panel of kinases [22]): 70%; percent of control binding remaining (lower = stronger binding) (broad panel of kinases [23]): 88%; percent of control binding remaining (lower = stronger binding) (broad panel of kinases [24]): 94%; percent of control binding remaining (lower = stronger binding) (broad panel of kinases [25]): 100%; percent of control binding remaining (lower = stronger binding) (broad panel of kinases [26]): 92%; percent of control binding remaining (lower = stronger binding) (broad panel of kinases [27]): 83%; percent of control binding remaining (lower = stronger binding) (broad panel of kinases [28]): 93%; percent of control binding remaining (lower = stronger binding) (broad panel of kinases [29]): 93%; percent of control binding remaining (lower = stronger binding) (broad panel of kinases [30]): 91%; percent of control binding remaining (lower = stronger binding) (broad panel of kinases [31]): 59%; percent of control binding remaining (lower = stronger binding) (broad panel of kinases [32]): 7.6%; percent of control binding remaining (lower = stronger binding) (broad panel of kinases [33]): 100%; percent of control binding remaining (lower = stronger binding) (broad panel of kinases [34]): 65%; percent of control binding remaining (lower = stronger binding) (broad panel of kinases [35]): 97%; percent of control binding remaining (lower = stronger binding) (broad panel of kinases [36]): 82%; % change compared to control (broad panel of kinases [37]): 73%
C=CC(=O)N1CC[C@H](Nc2nccc(Nc3ncc(C(=O)Nc4c(C)cccc4C)s3)n2)C1 [Example I-3]	61	87	85	76	89	26	85	88	100	100	76	100	96	0.1	99	93	89	0	93	98	percent of control binding remaining (lower = stronger binding) (broad panel of kinases [21]): 95%; percent of control binding remaining (lower = stronger binding) (broad panel of kinases [22]): 80%; percent of control binding remaining (lower = stronger binding) (broad panel of kinases [23]): 89%; percent of control binding remaining (lower = stronger binding) (broad panel of kinases [24]): 100%; percent of control binding remaining (lower = stronger binding) (broad panel of kinases [25]): 99%; percent of control binding remaining (lower = stronger binding) (broad panel of kinases [26]): 100%; percent of control binding remaining (lower = stronger binding) (broad panel of kinases [27]): 91%; percent of control binding remaining (lower = stronger binding) (broad panel of kinases [28]): 96%; percent of control binding remaining (lower = stronger binding) (broad panel of kinases [29]): 86%; percent of control binding remaining (lower = stronger binding) (broad panel of kinases [30]): 84%; percent of control binding remaining (lower = stronger binding) (broad panel of kinases [31]): 47%; percent of control binding remaining (lower = stronger binding) (broad panel of kinases [32]): 12%; percent of control binding remaining (lower = stronger binding) (broad panel of kinases [33]): 98%; percent of control binding remaining (lower = stronger binding) (broad panel of kinases [34]): 67%; percent of control binding remaining (lower = stronger binding) (broad panel of kinases [35]): 83%; percent of control binding remaining (lower = stronger binding) (broad panel of kinases [36]): 96%; % change compared to control (broad panel of kinases [37]): 91%
